Where two headings read alike, the source gives them in different places.
Key:
Type in all cases: physicochemical
[1] = Thermal stability by TGA (thermal gravimetric analysis) and DSC
Protocol: Thermal initiated carbonyl extrusion can be depicted by both TGA (thermal gravimetric analysis) and DSC (differential scanning calorimetry) studies. […] The decarbonylation appears at 150° C. to yield pentacene, which decomposes at about 360° C. as measured by 5% weight loss. During the extrusion, Compound (3) loses about 9% weight corresponding to the weight ratio of CO in the molecule. The pentacene thus produced is stable up to temperatures of about 350° C. Above about 350° C., Compound (3) starts to experience thermal decomposition.
General: ^1H^13C NMR spectra were obtained on a Bruker AMX-400 spectrometer. Infrared spectra were recorded on a Perkin-Elmer 682 infrared spectrophotometer. Ultraviolet-visible absorption Spectra were recorded on a HP 8453 spectrophotometer. Differential scanning calorimetry was done on a Perkin-Elmer model DSC7 instrument. Thermal gravimetric analysis was performed by a Perkin-Elmer TGA7 analyzer.

[2] = Solubility in organic solvents
Protocol: Compound (3) is quite soluble in dichloromethane benzene, toluene, acetone, and tetrahydrofuran (all in the range of ˜2.0 mM i.e. about 0.7 mg/mL solvent) but is not soluble in methanol, ethanol, or acetonitrile. Compound (3) can be applied to a surface of an article by spin coating, spray coating, screen printing or ink-jet printing to form a film. The film can be dried in any of the conventional ways including air drying or with mild heating, i.e. below about 120° C. Subsequent to drying, a chemical reaction is initiated preferably by the application of heat resulting, inter alia, in the driving off of volatile components including CO.

[3] = Stability at ambient conditions

Row | solubility ([2]; in methanol, ethanol or acetonitrile) | solubility ([2]; organic solvent or mixture, in dichloromethane, benzene, toluene, acetone and tetrahydrofuran (all in this range), read-out: solubility) | solubility ([2]; organic solvent or mixture, in dichloromethane, benzene, toluene, acetone and tetrahydrofuran, per mL solvent, read-out: solubility) | temperature above which thermal decomposition starts ([1]; TGA) | fragmentation (decarbonylation) temperature ([1]; TGA/DSC, 10° C./min heating rate, CO extrusion to yield pentacene) | weight loss during CO extrusion ([1]; TGA, corresponds to weight ratio of CO in the molecule) | stability [3] | Structure (SMILES) | decomposition temperature ([1]; TGA, as measured by 5% weight loss) | temperature up to which stable ([1]; TGA, pentacene produced from the precursor)
1 | – | – | – | – | – | – | – | c1ccc2cc3cc4cc5ccccc5cc4cc3cc2c1 [pentacene] | about 360 °C | about 350 °C
2 | not soluble | ~2000 µM | ~700 µg/mL | Above 350 °C | 150 °C | about 9% | stable | O=C1C2c3cc4ccccc4cc3C1c1cc3ccccc3cc12 [Compound (3), 6,13-dihydro-6,13-methanopentacene-15-one] | – | –

— US7572939B2, “Type of soluble pentacene precursor” (Academia Sinica, priority 2006, dated 2009)
